Molecular target: T1, human COX-2 enzyme (Homo sapiens, UniProt P35354)
T1 construct: purchased
T1 sequence (P35354 18-604): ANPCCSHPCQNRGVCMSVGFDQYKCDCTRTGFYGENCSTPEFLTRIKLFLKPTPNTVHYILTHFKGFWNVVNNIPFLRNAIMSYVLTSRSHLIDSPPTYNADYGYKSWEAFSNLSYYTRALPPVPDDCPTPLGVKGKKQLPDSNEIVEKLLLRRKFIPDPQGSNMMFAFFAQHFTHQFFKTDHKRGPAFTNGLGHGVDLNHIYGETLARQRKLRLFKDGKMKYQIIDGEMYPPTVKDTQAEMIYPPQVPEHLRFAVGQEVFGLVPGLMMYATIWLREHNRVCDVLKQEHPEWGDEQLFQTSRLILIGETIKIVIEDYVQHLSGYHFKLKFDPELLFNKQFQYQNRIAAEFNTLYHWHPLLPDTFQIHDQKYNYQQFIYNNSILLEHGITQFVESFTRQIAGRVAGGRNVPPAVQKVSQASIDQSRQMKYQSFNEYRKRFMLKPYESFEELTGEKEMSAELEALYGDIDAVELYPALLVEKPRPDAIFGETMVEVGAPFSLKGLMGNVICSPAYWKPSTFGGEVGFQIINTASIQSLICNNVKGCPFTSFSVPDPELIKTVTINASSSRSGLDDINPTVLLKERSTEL
Assay: Cyclooxygenases (COX-2) enzyme inhibition assay, COX (human) Inhibitor Screening Assay Kit with prostaglandin ELISA readout
Format: biochemical
Details: 10 μM compound, in vitro, ELISA plate incubation 18 hours, read-out: % Inhibition (COX-2) Mean ± SEM
Protocol: According to manufacturer instructions, a COX inhibition assay was performed using COX (human) Inhibitor Screening Assay Kit for the compounds 7-imino-5-(1H-indol-3-yl)-1,3-substituted-7,8-dihydropyrimido[4,5-d]pyrimidine-2,4(1H,3H)-dione derivatives (4a-c). All reagents and buffers were prepared in ultrapure water. All stock solutions of the compounds and the positive controls (Indomethacin and Celecoxib) were dissolved in DMSO. In each inhibitor sample tube, 160 μL reaction buffer, 10 μL of heme, 10 μL of diluted COX-2 enzyme, and 10 μL of the diluted inhibitor was added to get a final concentration of 100 μM. […] 10 μL of the vehicle control (DMSO) was added to the background tubes, and COX enzyme's 100% initial activity was obtained. All reaction tubes were incubated for 10 minutes at 37° C. Following this incubation, 10 μL of the substrate, arachidonic acid (AA), was added to all test tubes, mixed, and further incubated for precisely 30 seconds at 37° C. Then, 30 μL of SnCl2 solution was added to each reaction tube to stop the enzyme catalysis. All reaction tubes were removed from the incubator, vortexed, and incubated again for 5 min at room temperature. Reaction tubes were stored at 4° C. to quantify the prostaglandin formation by competitive enzyme-linked immunosorbent assay (ELISA). ELISA standards were prepared in test tubes to perform the competitive ELISA, and dilutions were prepared with the ELISA buffer. The standards, COX reaction dilutions, and background samples were serially diluted. […] Blank (to assess the background absorbance caused by Ellman's reagent) and total activity (TA) (to determine the enzymatic activity of the AChE-linked tracer) wells were left empty, 100 μL and 50 μL of the ELISA buffer were added to the nonspecific binding (NSB) and maximum binding (B0), respectively. […] Finally, the plate reading was done at a wavelength of 405 nm with a Microplate reader from BioTek (by Agilent), and data were collected using Gen5™ (by Agilent) analysis software. […]

Row | SMILES | inhibition at 10 µM [%]
1 | N=c1nc(-c2c[nH]c3ccccc23)c2c(=O)[nH]c(=O)[nH]c2[nH]1 [Compound 4a, 7-Imino-5-(1H-indol-3-yl)-7,8-dihydropyrimido[4,5-d]pyrimidine-2,4(1H,3H)-dione] | 23 ± 5.1
2 | N=c1nc(-c2c[nH]c3ccccc23)c2c(=O)[nH]c(=S)[nH]c2[nH]1 [Compound 4b, 7-Imino-5-(1H-indol-3-yl)-2-thioxo-2,3,7,8-tetrahydropyrimido[4,5-d]pyrimidin-4(1H)-one] | 88 ± 2.91
3 | Cn1c(=O)c2c(-c3c[nH]c4ccccc34)nc(=N)[nH]c2n(C)c1=O [Compound 4c, 7-Imino-5-(1H-indol-3-yl)-1,3-dimethyl-7,8-dihydropyrimido[4,5-d]pyrimidine-2,4(1H,3H)-dione] | 98 ± 1.53
